Results taken from patent US5756536A, “Microbial transformation of taxol and cephalomannine” (Purdue Research Foundation, priority 1996, dated 1998).
≈ marks a conversion by molar mass, not a printed value. Where two headings read alike, the source gives them in different places.

Tests used:
HT-29 = test: In vitro antitumor cytotoxicity, MTT microculture assay, HT-29; format: cell-based; details: Homo sapiens
Protocol: (§1) The in vitro antitumor activity cytotoxicity was measured by a microculture assay using 3-(4,5-dimethylthiazol-2-yl)-2,5-diphenyl-tetrazolium bromide (MTT). This assay has an advantage over in vivo assay in that results are obtained within a week as opposed to several months. The assay was done in 96-well microtiter plates. The MTT assay is based on the transformation into a dark blue formazan product by dehydrogenase in the mitochondria of live tumor cells after exposure to drug for 6 days [M. C. Alley, D. A. Scudiero, A. Monks, M. L. Hursey, M. J. Czerwinski, D. L. Fine, B. J. Abbott, J. G. Mayo, R. H. Shoemaker and M. R. Boyd, Cancer Res., 48, 589, 1988.] Thus, only live cells are stained and can be measured at 570 nm. Antitumor cytotoxicity is reported as GI50, effect drug dose at which cell growth is retarded to 50% of control culture of tumor cells. The active compounds must have GI50 values that are less then 10^-4 M or 10 μg/ml.
(§2) Antitumor Cytotoxicity of Taxanes
(§3) Against Human Tumor Cell Lines
HT29: colon adenocarcinoma

A-549 = test: In vitro antitumor cytotoxicity, MTT microculture assay, A-549; format: cell-based; details: Homo sapiens, A549, 144 h
Protocol: as §1, §2, §3

MCF-7 = test: In vitro antitumor cytotoxicity, MTT microculture assay, MCF-7; format: cell-based; details: Homo sapiens, MCF7, 144 h
Protocol: as §1, §2, §3
MCF7: breast adenocarcinoma

[1] = cited from earlier work
[2] = system: drug-refractory ovarian cancer; details: in vivo; cited from earlier work
tubulin [3] = test: FAT tubulin polymerization assay; format: biochemical
tubulin [4] = details: cited from earlier work
[5] = 144 h, HT-29 colon adenocarcinoma, drug exposure 6 days, MTT, 570 nm, read-out: GI50
[6] = A-549 lung carcinoma, drug exposure 6 days, MTT, 570 nm, read-out: GI50
[7] = MCF-7 breast adenocarcinoma, drug exposure 6 days, MTT, 570 nm, read-out: GI50

Row | SMILES | GI50 (HT-29; [5]) [ng/mL] | GI50 (A-549; [6]) [ng/mL] | GI50 (MCF-7; [7]) [ng/mL] | effect on microtubule / tubulin polymer formation (tubulin [4]) | also measured
1 | CC(=O)O[C@H]1C(=O)[C@@]2(C)[C@H]([C@H](OC(=O)c3ccccc3)[C@]3(O)C[C@H](OC(=O)[C@H](O)[C@@H](NC(=O)/C(C)=C/CO)c4ccccc4)C(C)=C1C3(C)C)[C@]1(OC(C)=O)CO[C@@H]1C[C@@H]2O [L-745,596] | 20 (≈ 23.6 nM) | 30 (≈ 35.4 nM) | 50 (≈ 59 nM) | – | –
2 | CC(=O)O[C@H]1C(=O)[C@@]2(C)[C@H]([C@H](OC(=O)c3ccccc3)[C@]3(O)C[C@H](OC(=O)[C@H](O)[C@@H](NC(=O)c4ccccc4)c4ccccc4)C(C)=C1C3(C)C)[C@]1(OC(C)=O)CO[C@@H]1C[C@@H]2O [Taxol] | 0.0001 (≈ 0.000117 nM) | 0.0004 (≈ 0.000468 nM) | 0.002 (≈ 0.00234 nM) | promotes formation of microtubules | toxic effects in phase 1 clinical trials [1]: did not show excessive toxic effects; activity against drug-refractory ovarian cancer [2]: active agent against drug-refractory ovarian cancer; IC50 in the FAT tubulin polymerization assay (tubulin [3]): 17 ng/mL (≈ 19.9 nM)
3 | CC(=O)O[C@H]1C(=O)[C@@]2(C)[C@H]([C@H](OC(=O)c3ccccc3)[C@]3(O)C[C@H](OC(=O)[C@H](O)[C@@H](NC(=O)c4ccc(O)cc4)c4ccccc4)C(C)=C1C3(C)C)[C@]1(OC(C)=O)CO[C@@H]1C[C@@H]2O [L-760,006] | 0.08 (≈ 0.092 nM) | 0.04 (≈ 0.046 nM) | 0.01 (≈ 0.0115 nM) | – | –
4 | C/C=C(\C)C(=O)N[C@@H](c1ccccc1)[C@@H](O)C(=O)O[C@H]1C[C@@]2(O)[C@@H](OC(=O)c3ccccc3)[C@@H]3[C@]4(OC(C)=O)CO[C@@H]4C[C@H](O)[C@@]3(C)C(=O)[C@H](OC(C)=O)C(=C1C)C2(C)C [Caphalomannine, cephalomannine] | – | – | – | – | GI50 (HT-29; HT-29, 144 h): 0.2 ng/mL (≈ 0.24 nM); GI50 (A-549): 0.1 ng/mL (≈ 0.12 nM); GI50 (MCF-7): 0.8 ng/mL (≈ 0.962 nM)
5 | CC[C@]1(O)C[C@@H]2CN(CCc3c([nH]c4ccccc34)[C@@](C(=O)OC)(c3cc4c(cc3OC)N(C)[C@H]3[C@@](O)(C(=O)OC)[C@H](OC(C)=O)[C@]5(CC)C=CCN6CC[C@]43[C@@H]65)C2)C1 [vinblastine] | – | – | – | prevent microtubule formation | –
6 | CC(=O)O[C@@]12CO[C@@H]1C[C@H](O)[C@@]1(C)C(=O)[C@H](OC(=O)CO)C3=C(C)[C@@H](OC(=O)[C@H](O)[C@@H](NC(=O)c4ccccc4)c4ccccc4)C[C@@](O)([C@@H](OC(=O)c4ccccc4)[C@H]21)C3(C)C [L-760,007, 10-hydroxyacetyl taxol] | 0.01 (≈ 0.0115 nM) | < 0.01 | 0.04 (≈ 0.046 nM) | – | –
7 | CC[C@]1(O)C[C@H]2CN(CCc3c([nH]c4ccccc34)[C@@](C(=O)OC)(c3cc4c(cc3OC)N(C=O)[C@H]3[C@@](O)(C(=O)OC)[C@H](OC(C)=O)[C@]5(CC)C=CCN6CC[C@]43[C@@H]65)C2)C1 [vineristine] | – | – | – | prevent microtubule formation | –
